Measured values reported in patent US5008285A, “(6,11-dihydro-11-oxodibenz[b,e]oxepin-yl)pentanoic acids and derivatives thereof” (Hoechst-Roussel Pharmaceuticals, Inc., priority 1989, dated 1991).
Like-named read-outs stand apart in the source and are kept apart here.

Tests used:
[1] = ulcerogenic activity test (GI); details: in vivo, po
Text: (The ulcerogenic activity test is hereafter referred to as GI).

[2] = test system: adjuvant-induced polyarthritis syndrome; experiment: adjuvant-induced polyarthritis syndrome in rats (inhibition of paw volume); assay type: in vivo, male Charles River-Wistar Lewis rats; details: 504 h, rat, oral, from day before adjuvant, continued for 21 days
Protocol: The (6,11-dihydro-11-oxodibenz[b,e]oxepinyl)pentanoic acids and derivatives thereof of the present invention are useful as antiarthritic agents due to their ability to suppress arthritis-type inflammation in mammals. […] M. Perron and F. D. Wood, Arthritis and Rheumatism, 2, 440 (1959).
Groups of 10 male Charles River-Wistar Lewis rats weighing 150 to 175 g were individually housed and maintained on a regular rat chow diet. Water was given ad libitrim. The adjuvant was prepared by suspending 75 mg of Mycobacterium butyricum (Defco Laboratories, Detroit, Mich.) in 10 ml of white paraffin oil with continuous stirring for 2 hrs at room temperature prior to administration. Test compounds are prepared by suspending the drug in water, adding one drop of Tween 80 per 10 ml of suspension, and homogenizing. The adjuvant suspension (0.1 ml) was injected into the footpad of the left hind paw of the rat. Test compound suspensions were administered orally (10 ml/kg) the day before adjuvant suspension injection and the administration was continued for 21 days. One group of ten rats was used for the test drug, standard, adjuvant-injected control and non-injected control. Control animals received vehicle (10 ml/kg). Three doses of test drug and one dose of standard preparation were used. Injected and non-injected paw volumes were determined on the day the adjuvant suspension was given, and on subsequent days thereafter (usually days 5, 10, 18, and " the method of C. A. Winter, et al., Proc. Soc. Exp. Biol. Med., 111, 544 (1962).
The percent inhibition of paw volume (injected and non-injected hind paw) was calculated by the following formula: [formula]
ED50 -values, i.e., the dose at which the drug affects a 50% inhibition of paw volume, were estimated by the method of J. T. Litchfield and F. Wilcoxon, J. Pharm. Exp. Ther., 96, 99 (1948) and statistically evaluated by means of the student "t" test.

[3] = injected hind paw, read-out: ED50 (dose at which the drug affects a 50% inhibition of paw volume), injected paw
[4] = non-injected hind paw, read-out: ED50 (dose at which the drug affects a 50% inhibition of paw volume), non-injected paw

SMILES	TD50 ([1]; read-out: GI ID50 (ulcerogenic activity))	ED50 [2, 3]	ED50 [2, 4]	TD50 [1]
CC(C(=O)O)c1ccc2c(c1)C(=O)c1ccccc1CO2 (stereo not drawn) [2-(6,11-Dihydro-11-oxodibenz[b,e]-oxepin-2-yl)propionic acid]	5.5 mg/kg	–	–	–
CCCCC1C(=O)N(c2ccccc2)N(c2ccccc2)C1=O [Phenylbutazone]	–	12 mg/kg	6.8 mg/kg	–
CC(CCC(=O)O)c1ccc2c(c1)C(=O)c1ccccc1CO2 (stereo not drawn) [4-(6,11-Dihydro-11-oxodibenz[b,e]oxepin-2-yl)pentanoic acid]	–	6.4 mg/kg	3.4 mg/kg	> 100 mg/kg
